# Measurements as given in ChEMBL document CHEMBL1615345, “Evaluation of a published in silico model and construction of a novel Bayesian model for predicting phospholipidosis inducing potential” (J Chem Inf Model, 2007).
# Tested on: Phospholipidosis
# Settings: not given
row,Structure (SMILES),Phospholipidosis
1,Cc1ccc2cc3c(ccc4ccccc43)c3c2c1CC3 [3-METHYLCHOLANTHRENE],Not Active
2,CCN1CC(CCN2CCOCC2)C(c2ccccc2)(c2ccccc2)C1=O (stereo unspecified) [DOXAPRAM],Not Active
3,CC(C)OC(=O)C(C)(C)Oc1ccc(C(=O)c2ccc(Cl)cc2)cc1 [FENOFIBRATE],Not Active
4,ClC(Cl)Cl [CHLOROFORM],Not Active
5,[N-]=[N+]=CC(=O)OC[C@H](N)C(=O)O [AZASERINE],Not Active
6,Cc1cn([C@H]2C[C@H](N=[N+]=[N-])[C@@H](CO)O2)c(=O)[nH]c1=O [ZIDOVUDINE],Not Active
7,O=C(O)Cc1ccccc1Nc1c(Cl)cccc1Cl [DICLOFENAC],Not Active
8,Nc1c2c(nc3ccccc13)CCCC2 [TACRINE],Not Active
9,CC(c1cc2ccccc2s1)N(O)C(N)=O (stereo unspecified) [ZILEUTON],Not Active
10,Nc1nc(NC2CC2)c2ncn([C@H]3C=C[C@@H](CO)C3)c2n1 [ABACAVIR],Not Active
11,O=C(O)c1cc(-c2ccc(F)cc2F)ccc1O [DIFLUNISAL],Not Active
12,Cc1cccc(Nc2cc(Cl)nc(SCC(=O)O)n2)c1C [PIRINIXIC ACID],Not Active
13,CCN(CC)CCOC(=O)c1ccc(N)cc1 [PROCAINE],Not Active
14,NN [HYDRAZINE],Not Active
15,CN(C)CCN(Cc1cccs1)c1ccccn1,Not Active
16,C=C1C[C@@H]1C[C@H](N)C(=O)O,Not Active
17,Cn1nnc2c(C(N)=O)ncn2c1=O [TEMOZOLOMIDE],Not Active
18,CC(=O)Nc1ccc(O)cc1 [ACETAMINOPHEN],Not Active
19,S=C=Nc1cccc2ccccc12 [1-NAPHTHYLISOTHIOCYANATE],Not Active
20,CCOC(=O)C(C)(C)Oc1ccc(Cl)cc1 [CLOFIBRATE],Not Active
21,CC(=O)N(O)CCCCCNC(=O)CCC(=O)N(O)CCCCCNC(=O)CCC(=O)N(O)CCCCCN [DEFEROXAMINE],Not Active

row,Structure (SMILES),Phospholipidosis
1,CNC(=O)Oc1ccc2c(c1)[C@]1(C)CCN(C)[C@@H]1N2C [PHYSOSTIGMINE],Not Active
2,N=C(N)NCCCCCCCCCCNC(=N)N [SYNTHALIN],Not Active
3,CO[C@H]1/C=C/O[C@@]2(C)Oc3c(C)c(O)c4c(O)c(c(/C=N/N5CCN(C)CC5)c(O)c4c3C2=O)NC(=O)/C(C)=C\C=C\[C@H](C)[C@H](O)[C@@H](C)[C@@H](O)[C@@H](C)[C@H](OC(C)=O)[C@@H]1C [RIFAMPIN],Not Active
4,CC(=N)S [THIOACETAMIDE],Not Active
5,CC1=C(CC(=O)O)c2cc(F)ccc2/C1=C\c1ccc([S+](C)[O-])cc1 (stereo unspecified),Not Active
6,NC(=O)N1c2ccccc2C=Cc2ccccc21 [CARBAMAZEPINE],Not Active
7,CN(C)[C@@H]1C(O)=C(C(N)=O)C(=O)[C@@]2(O)C(O)=C3C(=O)c4c(O)ccc(Cl)c4[C@@](C)(O)[C@H]3C[C@@H]12 [CHLORTETRACYCLINE],Not Active
8,COc1cc2c(c(OC)c1OC)-c1ccc(OC)c(=O)cc1[C@@H](NC(C)=O)CC2 [COLCHICINE],Not Active
9,CC(O)(CS(=O)(=O)c1ccc(F)cc1)C(=O)Nc1ccc(C#N)c(C(F)(F)F)c1 (stereo unspecified) [BICALUTAMIDE],Not Active
10,Cc1ccc(C)c(OCCCC(C)(C)C(=O)O)c1 [GEMFIBROZIL],Not Active
11,CN(C)[C@@H]1C(O)=C(C(=O)NCN2CCCC2)C(=O)[C@@]2(O)C(O)=C3C(=O)c4c(O)cccc4[C@@](C)(O)[C@H]3C[C@@H]12 [ROLITETRACYCLINE],Not Active
12,N[C@H]1C(O)O[C@H](CO)[C@@H](O)[C@@H]1O (stereo partly specified) [GLUCOSAMINE],Not Active
13,NC(=O)OCC(COC(N)=O)c1ccccc1 [FELBAMATE],Not Active
14,CCC(=O)C(CC(C)N(C)C)(c1ccccc1)c1ccccc1 (stereo unspecified) [METHADONE],Not Active
15,Cl.Cl.O=C(CCN1CCN2CCCC2C1)N1c2ccccc2Sc2ccc(Cl)cc21 (stereo unspecified) [AZACLORZINE HYDROCHLORIDE],Not Active
16,O=C(O)CCCCCCNC1c2ccccc2CCc2ccccc21 [AMINEPTINE],Not Active
17,CN(Cc1cnc2nc(N)nc(N)c2n1)c1ccc(C(=O)N[C@@H](CCC(=O)O)C(=O)O)cc1 [METHOTREXATE],Not Active
18,NC(=O)NO [HYDROXYUREA],Not Active
19,O=C1CN(/N=C/c2ccc(-c3ccc([N+](=O)[O-])cc3)o2)C(O)=N1 [DANTROLENE],Not Active
20,CN(C)[C@@H]1C(O)=C(C(N)=O)C(=O)[C@@]2(O)C(O)=C3C(=O)c4c(O)ccc(Cl)c4[C@@H](O)[C@H]3C[C@@H]12 [DEMECLOCYCLINE],Not Active
21,Cn1c(=O)c2c(ncn2C)n(C)c1=O [CAFFEINE],Not Active

row,Structure (SMILES),Phospholipidosis
1,CC(C)(Oc1ccc(C2CC2(Cl)Cl)cc1)C(=O)O (stereo unspecified) [CIPROFIBRATE],Not Active
2,CC(NC(C)(C)C)C(=O)c1cccc(Cl)c1 (stereo unspecified) [BUPROPION],Not Active
3,CC(C)(O/N=C(\C(=O)N[C@@H]1C(=O)N2C(C(=O)[O-])=C(C[n+]3ccccc3)CS[C@H]12)c1csc(N)n1)C(=O)O [CEFTAZIDIME],Not Active
4,C[C@](N)(Cc1ccc(O)c(O)c1)C(=O)O [METHYLDOPA],Not Active
5,CC(C)C(=O)Nc1ccc([N+](=O)[O-])c(C(F)(F)F)c1 [FLUTAMIDE],Not Active
6,CN1C(C(=O)Nc2ccccn2)=C(O)c2ccccc2S1(=O)=O [PIROXICAM],Not Active
7,COc1cc2c(cc1OC)C(=O)C(CC1CCN(Cc3ccccc3)CC1)C2 (stereo unspecified) [DONEPEZIL],Not Active
8,CCCC(CCC)C(=O)[O-].[Na+] [VALPROATE SODIUM],Not Active
9,CC(=O)O[C@]1(C(C)=O)CC[C@H]2[C@@H]3C=C(Cl)C4=CC(=O)[C@@H]5C[C@@H]5[C@]4(C)[C@H]3CC[C@@]21C [CYPROTERONE ACETATE],Not Active
10,Cc1cn([C@H]2C=C[C@@H](CO)O2)c(=O)[nH]c1=O [STAVUDINE],Not Active
11,COc1cc([C@@H]2c3cc4c(cc3[C@@H](O[C@@H]3O[C@@H]5CO[C@@H](C)O[C@H]5[C@H](O)[C@H]3O)[C@H]3COC(=O)[C@H]23)OCO4)cc(OC)c1O [ETOPOSIDE],Not Active
12,ClC(Cl)(Cl)Cl [CARBON TETRACHLORIDE],Not Active
13,CC(=O)Oc1ccccc1C(=O)O [ASPIRIN],Not Active
14,C#C[C@]1(O)CC[C@H]2[C@@H]3CCc4cc(O)ccc4[C@H]3CC[C@@]21C [ETHINYL ESTRADIOL],Not Active
15,NC(N)=Nc1nc(CSCCC(N)=NS(N)(=O)=O)cs1 [FAMOTIDINE],Not Active
16,C[C@H]1c2cccc(O)c2C(=O)C2=C(O)[C@]3(O)C(=O)C(C(N)=O)=C(O)[C@@H](N(C)C)[C@@H]3[C@@H](O)[C@@H]21.O [DOXYCYCLINE],Not Active
17,CN(C)C(=N)N=C(N)N [METFORMIN],Not Active
18,CCC1(c2ccccc2)C(=O)NC(=O)NC1=O [PHENOBARBITAL],Not Active
19,CCSCC[C@H](N)C(=O)O [ETHIONINE],Not Active

# Tested on: Phospholipidosis
# Settings: rat
row,Structure (SMILES),Phospholipidosis
1,CC[C@H]1CN2CCc3cc(OC)c(OC)cc3[C@@H]2C[C@@H]1C[C@H]1NCCc2cc(OC)c(OC)cc21 [EMETINE],Active
2,CC/C(=C(\c1ccccc1)c1ccc(OCCN(C)C)cc1)c1ccccc1 [TAMOXIFEN],Active
3,OC(CN1CCCCC1)c1ccc(C=C2c3ccccc3-c3ccccc32)cc1 (stereo unspecified),Active
4,Clc1ccc(C(c2ccccc2)N2CCNCC2)cc1 (stereo unspecified) [NORCHLORCYCLIZINE],Active
5,CCCC[C@@H]1CC(=O)[C@]2(O)O[C@@H]3[C@@H](NC)[C@@H](O)[C@@H](NC)[C@H](O)[C@H]3O[C@@H]2O1.O=S(=O)(O)O,Active
6,Cc1ccc(C(=O)Nc2ccc(S(=O)(=O)O)c3cc(S(=O)(=O)O)cc(S(=O)(=O)O)c23)cc1NC(=O)c1cccc(NC(=O)Nc2cccc(C(=O)Nc3cc(C(=O)Nc4ccc(S(=O)(=O)O)c5cc(S(=O)(=O)O)cc(S(=O)(=O)O)c45)ccc3C)c2)c1 [SURAMIN],Active
7,CN1CCN(C(c2ccccc2)c2ccc(Cl)cc2)CC1 (stereo unspecified) [CHLORCYCLIZINE],Active
8,CN(C)CCCn1c2c(c3ccccc31)CCCCCC2 [IPRINDOLE],Active
9,NCC[C@H](O)C(=O)N[C@@H]1C[C@H](N)[C@@H](O[C@H]2O[C@H](CN)[C@@H](O)[C@H](O)[C@H]2O)[C@H](O)[C@H]1O[C@H]1O[C@H](CO)[C@@H](O)[C@H](N)[C@H]1O [AMIKACIN],Active
10,CN(C)CCCN1c2ccccc2CCc2ccc(Cl)cc21 [CLOMIPRAMINE],Active
11,CN1CCN(C2=Nc3cc(Cl)ccc3Nc3ccccc32)CC1 [CLOZAPINE],Active
12,CCN(CC)CCn1nc2c3c(c(C)ccc31)Sc1cc(Cl)ccc1-2,Active
13,CN1CCN(Cc2nc3cccc4c3c([n+]2[O-])-c2ccccc2-4)CC1,Active
14,CN(C)CCC=C1c2ccccc2CCc2ccccc21 [AMITRIPTYLINE],Active
15,CCN[C@@H]1C[C@H](N)[C@@H](O[C@H]2OC(CN)=CC[C@H]2N)[C@H](O)[C@H]1O[C@H]1OC[C@](C)(O)[C@H](NC)[C@H]1O [NETILMICIN],Active
16,NC[C@@H]1CC[C@@H](N)[C@@H](O[C@H]2[C@H](O)[C@@H](O[C@H]3O[C@H](CO)[C@@H](O)[C@H](N)[C@H]3O)[C@H](N)C[C@@H]2N)O1 [DIBEKACIN],Active
17,O=C(NC1CCN(CCc2c[nH]c3ccccc23)CC1)c1ccccc1 [INDORAMIN],Active
18,CN1CCCN(C(c2ccccc2)c2ccc(Cl)cc2)CC1 (stereo unspecified) [HOMOCHLORCYCLIZINE],Active
19,CN(C)CCC=C1c2ccccc2CCc2c(Cl)cccc21,Active
20,CCOC(=O)C1N=C(c2ccccc2F)c2cc(Cl)ccc2NC1=O (stereo unspecified) [ETHYL LOFLAZEPATE],Active
